Experimental data taken from a melting point compilation (Tetko et al.; mined from patent text by program, amines drawn as free bases though some values may be those of a salt).

Structure (SMILES) | melting point
Cc1c(-c2ccccc2)n(-c2ccccc2Cl)c(-c2ccccc2)cc1=O | 228 to 231 °C
COc1cc(CO)cc2c(Br)ccc(OC(C)C)c12 | 120 to 121 °C
CN1CCC(c2n[nH]c3cc(F)ccc23)CC1 | 217 to 220 °C
O=Cc1ccc(-c2ccccc2Cl)cc1 | 124 to 125 °C
CS(=O)(=O)Nc1ccccc1NC1=CC=NC(Nc2ccc3c(c2)CNCCS3)N1Cl (stereo unspecified) | 141 to 143 °C
N#CN(c1ccccc1)S(=O)(=O)c1ccccc1 | 65 to 66 °C
Cc1onc(-c2ccccc2)c1-c1csc(NC(=O)C(N)=O)n1 | 204 to 205 °C
CCCCCCCCCCCCCCCCCCOc1cccc2c(O)cccc12 | 90 to 92 °C
COc1ccc(C(=O)N2c3ccc(OC)cc3CC2C(=O)O)cc1 (stereo unspecified) | 151 to 152 °C
CN(Cc1cc2c(=O)c(C(=O)NCc3ccc(Cl)cc3)cn(C)c2s1)CC(O)c1ccccc1 (stereo unspecified) | 162 to 164 °C
COc1cc2c(cc1O)CCN(Cc1cccc(OC(C)=O)c1)C2 | 120 to 122 °C
CC(C)(CO)NS(=O)(=O)c1cnc(NC(=O)c2cnn3c(C(F)(F)F)cc(-c4ccc(C(F)(F)F)cc4)nc23)s1 | 292 °C
COC(=O)c1cc(I)ccc1NC=C1C(=O)OC(C)(C)OC1=O | 206 to 208 °C
O=C(CC1CCCC1)c1ccc(Cn2ccc3ncnc-3c2)cc1 | 153 to 156 °C
NS(=O)(=O)Oc1ccc(I)cc1 | 146 to 147 °C
O=c1c2cnn(Cc3ccccc3)c2nc2n1CCS2 | 180 to 182 °C
CCn1nnnc1C(C=CC=O)=C(c1ccc(F)cc1)c1ccc(F)cc1 | 163 to 165 °C
COC(=O)[C@@H]1CC[C@@H]2CN1C(=O)N2OCc1ccccc1 | 86 °C
CC(=O)OC1CSC(Oc2cnccc2-c2cccnc2)C(OC(C)=O)C1OC(C)=O (stereo unspecified) | 159 °C
O=C(Cl)c1cc(C(=O)Cl)c(C#Cc2ccccc2)cc1C#Cc1ccccc1 | 157 to 160 °C
Cc1ccc2c(c1)C(C)(Cl)C(=S)N2 (stereo unspecified) | 185 to 187 °C
Cc1c(-c2ccccc2)c2cc(Cl)ccc2n1CC(N)=O | 223 to 224 °C
COc1ccc(C(=O)N(C)c2ccc(CO)cc2)cc1 | 85 to 90 °C
CC(C)Nc1cc2c(cc1C(=O)c1ccccc1)OCO2 | 77 to 78 °C
COc1ccc(-c2nc(Sc3ccc(Cl)cc3)cc(N3CCN(C)CC3)n2)cc1 | 143 to 145 °C
c1ccc(CN(c2ccccc2)c2ccccc2)cc1 | 86 °C

Structure (SMILES) | melting point
Cc1ccc(C(O)(c2ccccc2)c2ccncc2)cc1 (stereo unspecified) | 192 to 195 °C
CCOP(=O)(CCCOc1ccc2c(c1)c(CC(N)=O)c(C)n2Cc1ccccc1)OCC | 106 to 111 °C
COc1ccc(C2=NN(C3CCN(c4ccc([N+](=O)[O-])cc4)CC3)C(=O)[C@@H]3CC=CC[C@H]23)cc1OC | 196 to 197 °C
Cc1cc2c(cc1-n1c(C)ccc1C)OC(=O)C2C (stereo unspecified) | 94 to 95 °C
CCOC(=O)c1ccc(C(=O)c2c(N)sc3c2CCN(C(=O)OCc2ccccc2)C3)cc1 | 195 to 196 °C
Cc1cc(C)n(-c2nc(Nc3ccc(Cl)c(Cl)c3)c3ccccc3n2)n1 | 224 to 226 °C
Fc1ccc2c(c1)Cc1sc(NCCCN3CCOCC3)nc1-2 | 113 to 115 °C
CCOCc1nc2c(N)nc3cc(-c4ccccc4)cnc3c2n1CC(C)(C)O | 158 to 159 °C
O=C(O)c1cc(-n2c(=O)cc(C(F)(F)F)[nH]c2=O)ccc1Cl | 311 to 312 °C
CC(C)(C)N1C(=O)c2nc(Cl)cc(N)c2C1=O | 215 to 220 °C
Oc1ccc(Nc2ccn(Cc3ccccc3)n2)cc1 | 114 to 116 °C
COc1cc2c(cc1C(C)(C)c1ccccc1)OCO2 | 75 to 76 °C
CCOC(=O)c1ncc2[nH]c3ccc(C4CC=CCC4)cc3c2c1C (stereo unspecified) | 200 to 201 °C
O=C(Nc1ccc(C(F)(F)F)cc1)N1CC(c2ccccc2)C(c2ccc(Cl)cc2)N1 (stereo unspecified) | 212 to 214 °C
CC(=NOCC1CC1)c1cc(Cl)ccc1NS(=O)(=O)C(F)(F)F | 53 to 54 °C
Cc1c(C)c2c(c(C)c1O)CCC(C)(C(=O)Nc1ccccc1)O2 (stereo unspecified) | 107 to 109 °C
CCOc1ccc(CC)cc1-c1nc2ccc(C(=O)O)cc2c(=O)[nH]1 | > 310 °C
O=C(O)/C(=C/c1ccccc1)CSC(=O)c1ccccc1 | 160 °C
CC(C)(C)c1ccc(S(=O)(=O)n2c(CCCC(=O)O)cc3nc(Cl)ccc32)cc1 | 168 °C
CCOC(=O)C(Cc1c[nH]c2c(Cl)cccc12)(NC=O)C(=O)OCC | 159 to 162 °C
O=c1[nH]c(=O)n(C2CC(F)C(CCl)O2)cc1C=CBr (stereo unspecified) | 203 °C
COc1cc2c(Nc3cc(CN4CCCC4)c(O)c(CN4CCCC4)c3)ncnc2c(OC)c1OC | 189 to 191 °C
COCc1ccc2nc(SCCN3CCN(CC(=O)Nc4c(C(C)C)cccc4C(C)C)CC3)oc2c1COC | 96 to 97 °C
C#CCNc1nc2ccc(OC(F)(F)F)cc2s1 | 138 to 140 °C
CCN1CCCC1CNC(=O)c1sc(C=O)c(C)c1OC (stereo unspecified) | 122 to 123 °C
CN1C(=O)C(c2cc[nH]c2)(c2cccc(O)c2)N=C1N (stereo unspecified) | 142 to 145 °C

Structure (SMILES) | melting point
O=C(O)c1ccc(Cn2cnc3ccc(Cl)c(C(=O)O)c32)cc1 | 291 to 292 °C
CC1SC(=O)NN=C1c1ccc2c(c1)C(=NNC(=O)c1cccs1)C(=O)N2 (stereo unspecified) | > 300 °C
C[C@H](NC(=O)c1c(CBr)c(-c2ccccc2)nc2ccccc12)C1CCCCC1 | 182 to 184 °C
COc1ccc2c(c1)CCC(CNC(C)=O)C2 (stereo unspecified) | 96 to 97 °C
CN(C)c1ccc(-c2cccc(OC3SCC(O)C(O)C3O)c2)cn1 (stereo unspecified) | 119 °C
Cc1nnc(-c2ccc3occ(-c4ccncc4Cl)c3c2)o1 | 147 to 148 °C
CCOC(=O)C1=C(Cl)C(OCC)=NS1(=O)=O | 134 to 136 °C
N=C(Cl)c1c(Cc2ccc(Cl)cc2)nc2ccc(I)cc2c1O | 172 to 174 °C
CC(C)CON(Cc1ccc(F)cc1)C(=O)C1=C(O)C(=O)N(C)C1 | 96 to 97 °C
CCOCc1nc2c(N)nc3cc(CCC(=O)N4CCOCC4)ccc3c2n1CC(C)(C)O | 118 to 119 °C
COc1cc(C)nc(NC(=O)NS(=O)(=O)C2=CCCCC2)n1 | 163 to 166 °C
COc1ccc(C(=O)N[C@H]2C[C@@H](c3cc(NC(=O)Cc4cccc5ccccc45)n[nH]3)C2)cc1 | 176 °C
CCCCCCCCCCCCCCCC(CC)OCC(=O)c1ccccc1 (stereo unspecified) | 50 to 52 °C
CC(C)NC(C)CCc1nc(Cn2cnc3c2c(=O)n(C)c(=O)n3C)no1 (stereo unspecified) | 55 to 61 °C
Cn1cnc2c(cnn2-c2ncc(C(F)(F)F)cc2Cl)c1=O | 253 °C
N#Cc1cc(F)c(-n2nc(C(F)(F)F)n(N)c2=O)cc1F | 141 °C
COc1ccc2[nH]cc(C)c2c1OCc1ccccc1 | 60 to 61 °C
O=C(NCc1ccccc1)c1ccc(-c2ccc3nnn(Cc4ccc5ncccc5c4)c3n2)cc1F | 163 to 165 °C
COc1ccccc1CNc1cccc(-c2ccnc3c(C(=O)c4cccs4)cnn23)c1 | 138 to 140 °C
C#Cc1cccc(N2C(=O)c3ccccc3C2=O)c1 | 197 to 198 °C
Clc1ccc2c(c1)C(=C1CCN(CC3CCC3)CC1)c1ccccc1S2 | 180 to 182 °C
Cc1cc([N+](=O)[O-])cc(C(=O)Nc2nnn[nH]2)n1 | > 300 °C
CC(C)(C)OC(=O)N1CCN(CCOC(N)=O)CC1 | 135 to 136 °C
O=C(Nc1cccc2c1C(=O)c1c-2n[nH]c1-c1ccc(C(=O)[C@]23CN[C@H](CN2)C3)s1)NN1CCOCC1 | > 300 °C
COc1ccc(S(=O)(=O)N(C)C)cc1C(=O)NCc1ccc(OCCN(C)C)cc1 | 99.5 to 100 °C
CNCCCOc1ccc(-c2ccc(C(=O)O)cc2)cc1-c1ccc2c(c1)C(C)(C)CCC2(C)C | 242 °C

Structure (SMILES) | melting point
CSCCOc1ccc(-c2ccc3c(c2)C=C(C(=O)Nc2ccc(CN(C)C4CCOCC4)cc2)CCS3(=O)=O)cc1 | 222 to 224 °C
O=Cc1c2ccccc2c(Cl)c2cccc(Cl)c12 | 180 to 183 °C
COc1ccc2c(=O)cc(-c3cc[nH]n3)oc2c1 | 170 to 171 °C
COc1ccccc1N1CCN(Cc2cnc(N)nc2N)CC1 | 195 to 196 °C
CCOC(=O)C(C)=NNc1ccc(F)cc1F | 153 to 156 °C
CC1(c2ccc(-c3ccccc3)cc2)OC(=O)C(OCc2ccccc2)=C1O (stereo unspecified) | 182 to 183 °C
CCC(=O)CNC(=O)c1cc(OC)cc(Oc2cccc(C(F)(F)F)c2)n1 | 100 to 103 °C
COc1cc(O)c(C(=O)c2ccccc2)cc1CN(C)C | 69 °C
Cc1ccc(C2CN(c3cc4c(cc3F)ncc3c4c(=O)c(C(=O)O)cn3C)CCN2)cc1C (stereo unspecified) | 325 °C
CC(=O)Oc1ccc(CCc2cc(OC(C)=O)cc(OC(C)=O)c2)cc1 | 52 to 52.5 °C
COc1ccc2c(c1)C=C(/C=C/C=C/C=C/C(=O)O)C(C)(C)O2 | 154 to 156 °C
CCc1cccc(C)c1C(=O)N[C@@H](Cc1ccc(-c2c(C)n(C)c(=O)n(C)c2=O)cc1)C(=O)O | 127 to 133 °C
CC(C)(C)c1cccc(C[C@H](N)[C@H](O)c2cccc(Cl)c2)c1 (racemic) | 102 to 103 °C
O=C1C2CCCC2=Nc2ccccc2N1Cc1cccc2ccccc12 (stereo unspecified) | 145 to 147 °C
C=CCNc1ccc(N(CCO)CCO)cc1[N+](=O)[O-] | 73 to 75 °C
CCC12CCC3c4ccc(OC)cc4C(C)CC3C1CCC2=O (stereo unspecified) | 115 to 123 °C
O=c1[nH]cnc2c(Br)sc(Br)c12 | > 250 °C
O=C(O)CSC1c2ccccc2COc2ccc(OCc3ccc4ccccc4n3)cc21 (stereo unspecified) | 174 to 179 °C
COC(=O)NC1Cc2ccc([N+](=O)[O-])cc2C1OC(C)=O (stereo unspecified) | 164 to 167 °C
NC(=O)C(CCN1CC[C@@H](OCc2cccc(Cl)c2)C1)(c1ccccc1)c1ccccc1 | 91 to 93 °C
O=C1c2ccccc2C2(O)Oc3c(ccc(Cl)c3Cl)C12O (stereo unspecified) | 142 to 150 °C
COc1ccc(-c2cnc(C(N)=O)nc2)cc1OC1CCCC1 | 235 to 238 °C
COc1nc(N)nc2nc(/C=C3/CC3(CO)CO)[nH]c12 | 188 to 189 °C
